Results from patent US9708305B2, “Substituted 1,2,3,4-tetrahydroisoquinoline derivatives for the treatment of hormone-dependent diseases” (UNIVERSITÉ LAVAL, priority 2013, dated 2017).
Read-outs that look alike come from different tables or passages of the source. Blank lines part the entries; values can stand above or below the compound they belong to.

Tests used:
[1] = tested on: MCF-7 (ER+) cells; assay: Proliferative (estrogenic) activity on MCF-7 (ER+) cells; type: cell-based; conditions: 7 days; for proliferation of MCF-7 (ER+) cells: 1 μM, control 100%
Method: The next step was to determine the presence or absence of estrogenic activity. To do so, cell proliferative assays were carried out on MCF-7 cells. […] Phenols of the corresponding sulfamate library 3-EO and 4-EO are referred to as library 3′-EO and library 4′-EO, respectively.
This cell assay was carried out according to a procedure previously described to determine the estrogenic activity of enzyme inhibitors on the growth of estrogen-sensitive MCF-7 cells.^77 All chemicals tested were first dissolved in DMSO and subsequent dilutions were done in the proper cell culture media. The final concentration of DMSO in the culture medium was 0.1% or less. 3-(4,5-dimethylthiazol-2-yl)-5-(3-carboxymethoxyphenyl)-2-(4-sulfophenyl)-2-H-tetrazolium (MTS) was used as an indirect colorimetric measurement of cell proliferation according to the manufacturer's instructions (Promega, Madison, Wis.). At the end of the treatments, 20 μL of MTS solution was added to each well (100 μL) and the MCF-7 cells were incubated 4 h at 37° C. The absorbance at 490 nm was then measured with a Thermo max microplate reader (Molecular Devices, Sunnyvale, Calif.). The control (culture media+DMSO) is set to 100% of cell proliferation.

[2] = tested on: T-47D cells; assay: T-47D cell proliferation (estrogenicity / cytotoxicity), MTS; type: cell-based; conditions: for estrogenicity / cytotoxicity on T-47D cells / activity at 0.01 µM: 0.01 μM; for estrogenicity / cytotoxicity on T-47D cells: 0.1 μM and 1 μM; for activity at 0.01 µM / activity at 0.1 µM / activity at 1 µM: Homo sapiens, T47D, control cells set to 100%, mean±SD; for activity at 1 µM / Breast cancer cells T-47D (ER+) Agonist activity (%): 1 μM; for Breast cancer cells T-47D (ER+) Agonist activity (%): in % of control (100%; 0.1 nM of estradiol)
Method: The library of phenolic compounds described above was tested on estrogen-sensitive breast cancer T-47D cells.
In Table 1, cell proliferation of control cells is set to 100%. Results are expressed as mean±SD of one experiment in triplicate.
(§1) CellTitter 96® Aqueous One Solution Cell Proliferation Assay was used as an indirect colorimetric measurement of cell proliferation according to the manufacturer's instructions. Briefly, after the treatments, 20 μL of MTS solution was added to each well (100 μL) of the plates and incubated at 37° C. for 2 h (Saos-2) or 4 h (T-47D). The absorbance at 490 nm was then measured with a Thermo max microplate reader (Molecular Devices, Sunnyvale, Calif.). The control (culture media+DMSO) is set to 100% of cell proliferation.
(§2) The cells were plated in 96-well plates at a density of 3 000 cells/well and allowed to attach for 48 h. After this pre-incubation, the inhibitors and the reference compounds diluted in fresh culture media were added to the wells and replaced every 2 days for 7 days of treatment.

[3] = target: T1, steroid sulfatase (STS) (Homo sapiens, UniProt P08842); assay: Steroid sulfatase (STS) inhibition, [3H]-E1S to [3H]-E1, homogenate of transfected HEK-293 cells; type: biochemical; conditions: for inhibition of STS: homogenates of transfected HEK-293 cells
T1 construct: expressed in transfected cells; host or cells: HEK-293 cells stably transfected with STS (G418 selection), obtained from Dr. Van Luu-The; used as freeze-thaw homogenate
T1 sequence (P08842 22-583): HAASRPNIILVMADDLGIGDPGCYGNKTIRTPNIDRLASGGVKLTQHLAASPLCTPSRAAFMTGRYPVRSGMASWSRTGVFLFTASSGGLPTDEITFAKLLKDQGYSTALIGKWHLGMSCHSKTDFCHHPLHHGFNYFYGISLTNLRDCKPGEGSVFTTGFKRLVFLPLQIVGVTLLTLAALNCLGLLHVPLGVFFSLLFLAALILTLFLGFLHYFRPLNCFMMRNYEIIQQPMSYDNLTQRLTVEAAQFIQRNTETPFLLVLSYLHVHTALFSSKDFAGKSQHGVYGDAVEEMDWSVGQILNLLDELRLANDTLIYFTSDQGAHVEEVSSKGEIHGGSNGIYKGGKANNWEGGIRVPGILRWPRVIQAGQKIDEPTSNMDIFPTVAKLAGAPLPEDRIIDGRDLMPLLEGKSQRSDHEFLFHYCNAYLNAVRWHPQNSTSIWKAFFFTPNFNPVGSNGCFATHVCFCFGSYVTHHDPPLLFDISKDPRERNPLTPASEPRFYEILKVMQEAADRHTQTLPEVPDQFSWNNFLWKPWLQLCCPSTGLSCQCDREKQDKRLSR
Method: To test STS inhibition, we used homogenated HEK-293 cells overexpressing STS and evaluated the capacity of our compounds to inhibit the conversion of [^3H]-E1S into [^3H]-E1. […] This is outlined in FIG. 5.
An enzymatic assay previously described was used for the inhibition of the transformation of estrone sulfate (E1S) to estrone (E1) by STS.^72 Briefly, the transfected HEK-293 cells were homogenized by repeated (5 times) cycles of freezing (−80° C.) and thawing on ice (4° C.). The homogenates were then incubated for 2 h at 37° C. (shaking water bath) with or without inhibitors (0.01 μM-1 μM) in presence of [^3H]-E1S (9 nM), adjusted to 1 μM with E1S, in a Tris-acetate buffer (pH 7.4) containing 5 mM EDTA and 10% glycerol. After the incubation, 1 mL of xylene was added to each tube and the solutions were then centrifuged at 3000 rpm for 20 min to separate the organic ([^3H]-E1) and aqueous ([^3H]-E1S) phases. Once 500 μL of each phase was added to 10 mL of Biodegradable Counting Scintillant, the radioactivity of samples was recorded using a Wallac 1411 Liquid Scintillation Counter. The percentage of inhibition was determined by comparison with the control (buffer+homogenate+[^3H]-E1S) which was set to 0% of inhibition. IC50 value was obtained using GraphPad Prism 5 (GraphPad Software, La Jolla, Calif.).

[4] = tested on: T-47D cells; assay: T-47D cell proliferation in presence of E2 (antiestrogenicity); type: cell-based; conditions: for inhibition at 1 µM: Homo sapiens, T47D, read-out: Breast cancer cells T-47D (ER+) Antagonist activity (%)
Method: as §1, §2

[5] = tested on: osteoblast-like Saos-2 cells; assay: Saos-2 cell proliferation, MTS; type: cell-based; conditions: for Saos-2 cell proliferation, dose response: 1 nM to 1 μM; for Saos-2 cell proliferation, dose response / Saos-2 cell proliferation: 7 days; for Bone cells Saos-2 (ER+) SERM effect Proliferative activity (%): in percentage of control (100%; 0.1 nM of estradiol); for Saos-2 cell proliferation: control 100%
Text: First, we wanted to evaluate their effect on cell proliferation. […] This is outlined in FIG. 8A. […] One of the main roles of osteoblasts in bone tissue is to construct a calcified extracellular matrix.^15 As such, bone formation is not principally due to osteoblasts proliferation but rather osteoblasts maturation into mature osteocytes. […] This is outlined in FIG. 8B.
as §1
Saos-2 cells were suspended in phenol-red free McCoy's 5A medium supplemented with 10% charcoal-stripped FBS, penicillin (100 IU/mL) and streptomycin (100 μg/mL). The cells were seeded in 96-well plates at a density of 3 000 cells/well and allowed to attach. After 24 h, the inhibitors and the reference compounds diluted in fresh culture media were added to the wells and replaced every 2 days for 7 days of treatment.

[6] = tested on: alkaline phosphatase (ALP) activity in Saos-2 cells; assay: Alkaline phosphatase (ALP) activity in Saos-2 cells; type: cell-based
Method: ALP is an enzyme that releases inorganic phosphate from different intracellular substrates such as pyrophosphate and pyridoxal 5′-phosphate.^63 The inorganic phosphate is used in the formation of hydroxyapatite crystals which are then inserted in the extracellular protein scaffold to form the solid part of bone tissue.
Saos-2 cells were treated similarly as reported in the cell proliferation assay. The cells were seeded at a density of 2 000 cells/well and were treated with the inhibitors and the reference compounds for 3 days. The alkaline phosphatase (ALP) activity was measured using Sensolyte® pNPP Alkaline Phosphatase Assay Kit *Colorimetric* (AnaSpec, Fremont, Calif.) following the manufacturer's protocol. Briefly, after the 3 days of treatment, the cells were washed twice with washing buffer (provided with the kit) and lysed with 0.2% Triton X-100. The cell lysates were centrifuged and the supernatants were used to determine the ALP activity. The supernatants were deposed in a 96-well plate and incubated 30 min with a p-nitrophenyl phosphate solution (provided with the kit). The absorbance at 405 nm was measured with a Thermo max microplate reader (Molecular Devices, Sunnyvale, Calif.). The control (culture media+DMSO) is set to 100% of alkaline phosphatase activity.

[7] = transformation of E1S into E1 in homogenate of HEK-293 cells transfected with STS, read-out: Steroid Sulfatase Inhibition IC50
[8] = homogenated HEK-293 cells overexpressing STS, [3H]-E1S to [3H]-E1, read-out: STS inhibition IC50

Compound: O=C(c1ccc(CN(CCO)Cc2ccccc2)cc1)N1CCc2ccc(O)cc2C1 [3′-EO-02]
proliferation of MCF-7 (ER+) cells [1]: 135%

Compound: CN(C)CCCN(Cc1ccccc1)Cc1ccc(C(=O)N2CCc3ccc(O)cc3C2)cc1 [3′-EO-05]
proliferation of MCF-7 (ER+) cells [1]: 126%

Compound: O=C(c1ccc(CN(Cc2ccccc2)Cc2ccco2)cc1)N1CCc2ccc(O)cc2C1 [3′-EO-11]
stimulation of MCF-7 cell growth ([1]; 0.01 μM, 0.1 μM and 1 μM): did not stimulate

Compound: CCN(Cc1ccc(C(=O)N2CCc3ccc(O)cc3C2)cc1)Cc1cccc(Br)c1 [3′-EO-12]
proliferation of MCF-7 (ER+) cells [1]: 118%

Compound: CCN(Cc1ccc(Br)cc1)Cc1ccc(C(=O)N2CCc3ccc(O)cc3C2)cc1 [3′-EO-13]
proliferation of MCF-7 (ER+) cells [1]: 177%

Compound: COc1ccc(CN(Cc2ccc(C(=O)N3CCc4ccc(O)cc4C3)cc2)Cc2ccccn2)cc1 [Compound 31, (7-hydroxy-3,4-dihydroisoquinolin-2(1H)-yl)(4-{[(4-methoxybenzyl)(pyridin-2-ylmethyl)amino]methyl}phenyl)methanone]
estrogenicity / cytotoxicity on T-47D cells [2]: neither estrogenicity nor cytotoxicity
activity at 0.01 µM [2]: 105.6 ± 0.6%
activity at 0.1 µM [2]: 105 ± 7.4%
activity at 1 µM [2]: 101 ± 7.9%
inhibition of STS [3]: no significant inhibition

Compound: Cc1ccc(CN(Cc2ccc(C(=O)N3CCc4ccc(OS(N)(=O)=O)cc4C3)cc2)Cc2ccco2)s1 [Compound 33, 2-{[4-({(furan-2-ylmethyl)[(5-methylthiophen-2-yl)methyl]amino}methyl)phenyl]carbonyl}-1,2,3,4-tetrahydroisoquinolin-7-yl sulfamate]
Breast cancer cells T-47D (ER+) Agonist activity (%) [2]: 0%
IC50 [3, 7]: 3.9 nM
inhibition at 1 µM [4]: 25%
Saos-2 cell proliferation, dose response [5]: apparent dose-dependent response
Bone cells Saos-2 (ER+) SERM effect Proliferative activity (%) ([5]; 0.1 μM): 33%
Saos-2 cell proliferation ([5]; 1 μM): ~150%
Bone cells Saos-2 (ER+) SERM effect Proliferative activity (%) ([5]; 1 μM): 211%
Bone cells Saos-2 (ER+) SERM effect Alkaline phosphatase activity (%) ([6]; 0.1 nM): 48%

Now from value to compound, other results behind:

inhibition of STS [3]: no significant inhibition
Compound: O=C(c1ccc(CN(Cc2ccccn2)Cc2ccco2)cc1)N1CCc2ccc(O)cc2C1 [Compound 25, (4-{[(furan-2-ylmethyl)(pyridin-2-ylmethyl)amino]methyl}phenyl)(7-hydroxy-3,4-dihydroisoquinolin-2(1H)-yl)methanone]
estrogenicity / cytotoxicity on T-47D cells [2]: neither estrogenicity nor cytotoxicity
activity at 0.01 µM [2]: 104 ± 2.3%
activity at 0.1 µM [2]: 103 ± 2.5%
activity at 1 µM [2]: 104 ± 6.5%

inhibition of STS [3]: no significant inhibition
IC50 [3, 7]: > 1000 nM
Compound: Cc1ccc(CN(Cc2ccc(C(=O)N3CCc4ccc(O)cc4C3)cc2)Cc2ccco2)s1 [Compound 29, [4-({(furan-2-ylmethyl)[(5-methylthiophen-2-yl)methyl]amino}methyl)phenyl](7-hydroxy-3,4-dihydroisoquinolin-2(1H)-yl)methanone]
estrogenicity / cytotoxicity on T-47D cells [2]: neither estrogenicity nor cytotoxicity
Breast cancer cells T-47D (ER+) Agonist activity (%) [2]: 0%
activity at 0.01 µM [2]: 97.1 ± 2.6%
activity at 0.1 µM [2]: 103 ± 1.8%
activity at 1 µM [2]: 96.8 ± 2.2%
blockade of the stimulation induced by E2 in T-47D cells ([4]; 5 μM, E2 0.1 nM): approximately 84%
inhibition at 1 µM [4]: 46%
Saos-2 cell proliferation, dose response [5]: apparent dose-dependent response
Bone cells Saos-2 (ER+) SERM effect Proliferative activity (%) ([5]; 0.1 μM): 175%
Saos-2 cell proliferation ([5]; 1 μM): ~150%
Bone cells Saos-2 (ER+) SERM effect Proliferative activity (%) ([5]; 1 μM): 250%
Bone cells Saos-2 (ER+) SERM effect Alkaline phosphatase activity (%) ([6]; 0.1 nM): 114%
stimulation of ALP activity in presence of ICI-164,384 or MPP + PHTPP ([6]; 0.1 nM compound, antagonists 1 μM, 3 days): completely blocked the stimulation
ALP activity in Saos-2 cells ([6]; 0.1 nM, 3 days, control 100%): 138%

IC50 [3, 8]: 16.6 nM
Compound: NS(=O)(=O)Oc1ccc2c(c1)CN(C(=O)c1ccc(CN(Cc3ccccn3)Cc3ccco3)cc1)CC2 [Compound 32, 2-[(4-{[(furan-2-ylmethyl)(pyridin-2-ylmethyl)amino]methyl}phenyl)carbonyl]-1,2,3,4-tetrahydroisoquinolin-7-yl sulfamate]

IC50 [3, 8]: 3.9 nM
Compound: COc1ccc(CN(Cc2ccc(C(=O)N3CCc4ccc(OS(N)(=O)=O)cc4C3)cc2)Cc2ccccn2)cc1 [Compound 34, 2-[(4-{[(4-methoxybenzyl)(pyridin-2-ylmethyl)amino]methyl}phenyl)carbonyl]-1,2,3,4-tetrahydroisoquinolin-7-yl sulfamate]
